In US9354230B2, “Methods and apparatus for conducting multiple measurements on a sample” (MESO SCALE TECHNOLOGIES, LLC., priority 2001, dated 2016):

What was measured:
[1] = target: T1, HIV Reverse Transcriptase (RT) RNAse H activity (Human immunodeficiency virus type 1 group M subtype B, UniProt P04585); test: ECL assay of HIV RT RNAse H activity in one well of an MDMW Plate; assay type: biochemical; settings: 125 uM; data not shown
T1 construct: HIV Reverse Transcriptase (RT), an enzyme with both a RNA-dependent DNA polymerase (RDDP) activity and an RNAse H activity

[2] = target: T2, HIV Reverse Transcriptase (RT) RNA-dependent DNA polymerase (RDDP) activity (Human immunodeficiency virus type 1 group M subtype B, UniProt P04585); test: ECL assay of HIV RT RDDP activity in one well of an MDMW Plate; assay type: biochemical; settings: 125 uM; data not shown
T2 construct: HIV Reverse Transcriptase (RT), an enzyme with both a RNA-dependent DNA polymerase (RDDP) activity and an RNAse H activity

Nc1ccn([C@H]2CC[C@@H](COP(=O)(O)OP(=O)(O)OP(=O)(O)O)O2)c(=O)n1 [ddCTP]
effect on RNAse H activity [1]: no effect | inhibition of RDDP activity [2]: completely inhibited
